# Assay results as given in US9580416B2, “Inhibitors of Bruton's tyrosine kinase” (PHARMACYCLICS LLC, priority 2014, dated 2017).
# Read-outs that look alike come from different tables or passages of the source.
# What was measured:
# Type in all cases: biochemical
# Lck = Lck (Homo sapiens, UniProt P06239); assay: Lck kinase activity, TR-FRET assay
# How it was run: (§1)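 Enzyme (Btk 0.5 nM; Lck 6 nM) reacted 1 h with inhibitor, ATP at Km and biotin-peptide substrate in pH 7.4 buffer, 10% DMSO. Phosphopeptide detected by Eu-p-Tyr100 antibody plus streptavidin-APC (665/615 nm). IC50 calculated from fitted Ki(app) via ATP/Km correction plus half total enzyme.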
# Btk = Btk (Homo sapiens, UniProt Q06187); assay: Btk kinase activity, TR-FRET assay
# Sequence of Btk (Q06187 whole entry): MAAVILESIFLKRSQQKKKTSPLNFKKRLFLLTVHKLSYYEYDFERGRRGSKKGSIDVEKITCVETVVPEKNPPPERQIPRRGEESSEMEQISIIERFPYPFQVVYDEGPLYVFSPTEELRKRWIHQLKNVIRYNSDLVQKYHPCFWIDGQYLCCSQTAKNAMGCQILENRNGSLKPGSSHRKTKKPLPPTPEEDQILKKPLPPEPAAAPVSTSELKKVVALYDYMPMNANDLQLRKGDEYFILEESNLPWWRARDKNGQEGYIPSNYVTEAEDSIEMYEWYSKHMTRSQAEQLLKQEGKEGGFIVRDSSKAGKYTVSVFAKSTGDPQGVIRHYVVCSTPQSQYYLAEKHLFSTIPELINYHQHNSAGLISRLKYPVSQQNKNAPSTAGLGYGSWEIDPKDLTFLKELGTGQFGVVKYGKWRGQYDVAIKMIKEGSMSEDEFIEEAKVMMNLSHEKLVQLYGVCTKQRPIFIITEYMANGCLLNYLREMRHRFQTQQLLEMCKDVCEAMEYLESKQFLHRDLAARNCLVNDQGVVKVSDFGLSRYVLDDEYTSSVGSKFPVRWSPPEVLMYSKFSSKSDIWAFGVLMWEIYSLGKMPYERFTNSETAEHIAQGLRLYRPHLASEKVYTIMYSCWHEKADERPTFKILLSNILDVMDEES
# How it was run: as §1
# EGFR = EGFR (Homo sapiens, UniProt P00533); assay: Inhibition of a panel of kinases, in vitro HotSpot kinase assay: EGFR
# Sequence of EGFR (P00533 25-1210): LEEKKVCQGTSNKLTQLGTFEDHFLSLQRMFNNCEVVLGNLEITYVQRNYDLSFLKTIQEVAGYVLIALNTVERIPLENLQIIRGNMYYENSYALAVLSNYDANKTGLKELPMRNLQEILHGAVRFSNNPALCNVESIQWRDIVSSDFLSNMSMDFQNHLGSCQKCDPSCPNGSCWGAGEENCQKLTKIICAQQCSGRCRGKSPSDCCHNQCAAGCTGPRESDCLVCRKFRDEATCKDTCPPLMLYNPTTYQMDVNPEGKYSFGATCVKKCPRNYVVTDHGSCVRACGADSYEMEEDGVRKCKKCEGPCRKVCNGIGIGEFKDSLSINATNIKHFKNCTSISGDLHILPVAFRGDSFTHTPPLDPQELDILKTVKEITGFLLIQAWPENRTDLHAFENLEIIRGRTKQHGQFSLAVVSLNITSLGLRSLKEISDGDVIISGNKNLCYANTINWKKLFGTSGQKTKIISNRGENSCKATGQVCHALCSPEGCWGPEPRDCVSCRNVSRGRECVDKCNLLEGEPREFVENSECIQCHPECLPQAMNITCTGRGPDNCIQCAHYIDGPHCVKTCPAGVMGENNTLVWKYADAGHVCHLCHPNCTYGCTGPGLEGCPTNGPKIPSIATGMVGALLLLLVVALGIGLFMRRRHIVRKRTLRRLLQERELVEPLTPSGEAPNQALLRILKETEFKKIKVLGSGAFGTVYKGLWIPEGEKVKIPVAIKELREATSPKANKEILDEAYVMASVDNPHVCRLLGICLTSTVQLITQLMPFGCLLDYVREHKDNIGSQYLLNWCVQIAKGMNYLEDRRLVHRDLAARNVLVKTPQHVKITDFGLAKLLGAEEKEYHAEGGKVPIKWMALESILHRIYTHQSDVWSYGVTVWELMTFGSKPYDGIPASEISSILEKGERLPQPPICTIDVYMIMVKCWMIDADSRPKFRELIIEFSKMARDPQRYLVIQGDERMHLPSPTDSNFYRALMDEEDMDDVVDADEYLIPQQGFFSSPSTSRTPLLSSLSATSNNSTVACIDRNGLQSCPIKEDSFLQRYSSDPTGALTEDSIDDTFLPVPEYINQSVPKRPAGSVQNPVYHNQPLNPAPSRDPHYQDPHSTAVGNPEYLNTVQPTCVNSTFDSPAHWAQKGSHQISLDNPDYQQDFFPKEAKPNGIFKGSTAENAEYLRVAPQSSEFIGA
# Experimental: (§2) The degree of inhibition of a panel of kinases is determined using the in vitro HotSpot kinase assay (purified enzymes, ^33P-ATP, an appropriate substrate and 1 uM ATP).
# JAK3 = molecular target: T1, JAK3 (Homo sapiens, UniProt P52333); assay: Inhibition of a panel of kinases, in vitro HotSpot kinase assay: JAK3
# T1 sequence (P52333 1-1124): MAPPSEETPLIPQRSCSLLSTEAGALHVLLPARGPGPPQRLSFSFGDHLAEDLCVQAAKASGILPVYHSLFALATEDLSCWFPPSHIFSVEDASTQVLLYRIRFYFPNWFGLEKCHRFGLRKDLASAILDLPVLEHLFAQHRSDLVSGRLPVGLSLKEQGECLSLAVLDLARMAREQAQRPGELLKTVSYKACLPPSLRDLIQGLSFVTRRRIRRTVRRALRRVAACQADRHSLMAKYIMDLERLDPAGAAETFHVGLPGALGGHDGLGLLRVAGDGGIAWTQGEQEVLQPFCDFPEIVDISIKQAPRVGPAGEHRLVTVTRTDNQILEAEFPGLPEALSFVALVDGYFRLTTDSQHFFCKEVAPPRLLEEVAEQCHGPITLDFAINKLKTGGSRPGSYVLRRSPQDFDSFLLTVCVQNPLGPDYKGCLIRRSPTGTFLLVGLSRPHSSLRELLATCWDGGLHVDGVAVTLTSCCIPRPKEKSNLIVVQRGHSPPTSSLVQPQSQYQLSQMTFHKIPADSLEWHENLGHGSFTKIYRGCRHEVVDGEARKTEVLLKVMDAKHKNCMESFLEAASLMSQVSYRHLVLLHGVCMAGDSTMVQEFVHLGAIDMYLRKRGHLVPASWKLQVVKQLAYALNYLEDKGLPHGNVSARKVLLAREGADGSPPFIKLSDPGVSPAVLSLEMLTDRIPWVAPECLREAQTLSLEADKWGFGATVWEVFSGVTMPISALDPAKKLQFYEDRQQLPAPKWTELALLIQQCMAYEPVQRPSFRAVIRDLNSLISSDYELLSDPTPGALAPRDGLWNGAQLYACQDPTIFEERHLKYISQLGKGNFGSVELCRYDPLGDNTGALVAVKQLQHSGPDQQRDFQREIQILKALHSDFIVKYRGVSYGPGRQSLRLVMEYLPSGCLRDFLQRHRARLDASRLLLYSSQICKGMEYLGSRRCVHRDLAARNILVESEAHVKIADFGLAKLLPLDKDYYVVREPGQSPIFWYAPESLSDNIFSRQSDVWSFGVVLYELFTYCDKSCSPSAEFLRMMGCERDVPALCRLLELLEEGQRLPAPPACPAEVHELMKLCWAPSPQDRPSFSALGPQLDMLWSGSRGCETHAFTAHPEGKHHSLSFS
# Experimental: as §2
# Sequence of Lck (P06239 whole entry, species assumed): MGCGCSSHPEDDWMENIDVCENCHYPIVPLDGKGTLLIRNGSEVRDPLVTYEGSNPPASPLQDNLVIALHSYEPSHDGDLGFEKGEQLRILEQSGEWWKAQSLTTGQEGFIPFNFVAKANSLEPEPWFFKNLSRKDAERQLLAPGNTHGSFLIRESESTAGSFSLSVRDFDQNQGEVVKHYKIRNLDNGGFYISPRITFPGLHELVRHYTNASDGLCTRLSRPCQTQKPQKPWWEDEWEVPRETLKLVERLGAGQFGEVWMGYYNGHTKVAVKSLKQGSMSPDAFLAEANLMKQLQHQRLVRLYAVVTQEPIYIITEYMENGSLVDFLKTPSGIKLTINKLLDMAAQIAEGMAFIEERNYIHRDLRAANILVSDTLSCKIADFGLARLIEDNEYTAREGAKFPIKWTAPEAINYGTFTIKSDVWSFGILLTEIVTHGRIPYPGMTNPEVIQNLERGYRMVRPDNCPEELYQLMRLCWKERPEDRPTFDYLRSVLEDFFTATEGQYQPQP
IC50 (Lck; read-out: LCK (IC50)) [nM],IC50 (Btk; read-out: Btk (IC50)) [nM],IC50 (EGFR) [nM],IC50 (JAK3) [nM],SMILES,IC50 (Lck) [nM],IC50 (Btk) [nM]
100 to 1000,< 100,> 10000,100 to 1000,CCNC(=O)N1CCC[C@@H](Nc2n[nH]c3nccc(Oc4ccc(C(=O)Nc5nc6ccccc6s5)cc4)c23)C1 [compound 176],–,–
100 to 1000,< 100,> 10000,1000 to 10000,"CC1(C(=O)N2CCC[C@@H](Nc3n[nH]c4nccc(Oc5ccc(C(=O)Nc6nc7ccccc7s6)cc5)c34)C2)COC1 [compound 226, N-(1,3-benzothiazol-2-yl)-4-[(3-{[(3R)-1-(3-methyloxetane-3-carbonyl)piperidin-3-yl]amino}-1H-pyrazolo[3,4-b]pyridin-4-yl)oxy]benzamide]",–,–
100 to 1000,< 100,> 10000,> 10000,"CC#CC(=O)N1CCC[C@@H](Nc2n[nH]c3nccc(Oc4ccc(C(=O)Nc5cc(C)ccn5)cc4)c23)C1 [compound 280, (R)-4-(3-(1-but-2-ynoylpiperidin-3-ylamino)-1H-pyrazolo[3,4-b]pyridin-4-yloxy)-N-(4-methylpyridin-2-yl)benzamide]",–,–
> 10000,< 100,1000 to 10000,100 to 1000,C=CC(=O)N1CCC[C@@H](Nc2n[nH]c3nccc(Oc4ccc(C(=O)Nc5cc(C)n(C)n5)cc4)c23)C1 [compound 159],–,–
> 10000,100 to 1000,> 10000,> 10000,"CN(C)CCCC(=O)N[C@@H]1CCCN(c2n[nH]c3nccc(Oc4ccc(C(=O)Nc5cc(C(F)(F)F)ccn5)cc4)c23)C1 [compound 230, 4-({3-[(3R)-3-[4-(dimethylamino)butanamido]piperidin-1-yl]-1H-pyrazolo[3,4-b]pyridin-4-yl}oxy)-N-[4-(trifluoromethyl)pyridin-2-yl]benzamide]",–,–
100 to 1000,< 100,1000 to 10000,> 10000,"CC#CC(=O)N1CCC[C@@H](Nc2n[nH]c3nccc(Oc4ccc(C(=O)Nc5cc(C(F)(F)F)ccn5)cc4)c23)C1 [compound 205, 4-[(3-{[(3R)-1-(but-2-ynoyl)piperidin-3-yl]amino}-1H-pyrazolo[3,4-b]pyridin-4-yl)oxy]-N-[4-(trifluoromethyl)pyridin-2-yl]benzamide]",–,–
100 to 1000,< 100,100 to 1000,> 10000,"CCC(=O)N1CCC[C@@H](Nc2n[nH]c3nccc(Oc4ccc(C(=O)Nc5cc(C(F)(F)F)ccn5)cc4)c23)C1 [compound 225, 4-[(3-{[(3R)-1-propanoylpiperidin-3-yl]amino}-1H-pyrazolo[3,4-b]pyridin-4-yl)oxy]-N-[4-(trifluoromethyl)pyridin-2-yl]benzamide]",–,–
> 10000,< 100,1000 to 10000,100 to 1000,C=CC(=O)N1CCC[C@@H](Nc2n[nH]c3nccc(Oc4ccc(C(=O)Nc5cc(C)on5)cc4)c23)C1 [compound 178],–,–
> 10000,< 100,> 10000,< 100,C=CC(=O)N1CCC[C@@H](Nc2n[nH]c3nccc(Oc4ccc(C(=O)Nc5nc6c(s5)CCN(C)C6)cc4)c23)C1 [compound 145],–,–
100 to 1000,< 100,100 to 1000,100 to 1000,"Cc1ccnc(NC(=O)c2ccc(Oc3ccnc4[nH]nc(N[C@@H]5CCCN(C(=O)C#CCO)C5)c34)cc2)c1 [compound 282, (R)-4-(3-(1-(4-hydroxybut-2-ynoyl)piperidin-3-ylamino)-1H-pyrazolo[3,4-b]pyridin-4-yloxy)-N-(4-methylpyridin-2-yl)benzamide]",–,–
1000 to 10000,100 to 1000,1000 to 10000,> 10000,"Cc1cnc(NC(=O)c2ccc(Oc3ccnc4[nH]nc(C5CCCN(C(=O)C6CCN(C)CC6)C5)c34)cc2)s1 (stereo not drawn) [compound 217, N-(5-methyl-1,3-thiazol-2-yl)-4-({3-[1-(1-methylpiperidine-4-carbonyl)piperidin-3-yl]-1H-pyrazolo[3,4-b]pyridin-4-yl}oxy)benzamide]",–,–
1000 to 10000,< 100,> 10000,> 10000,"Cc1ccnc(NC(=O)c2ccc(Oc3ccnc4[nH]nc(N[C@@H]5CCCN(C(=O)C6(C)CCN(C(=O)OC(C)(C)C)CC6)C5)c34)cc2)c1 [compound 103, tert-butyl 4-methyl-4-[(3R)-3-[(4-{4-[(4-methylpyridin-2-yl)carbamoyl]phenoxy}-1H-pyrazolo[3,4-b]pyridin-3-yl)amino]piperidine-1-carbonyl]piperidine-1-carboxylate]",–,–
100 to 1000,< 100,1000 to 10000,> 10000,O=C(Nc1cc(C(F)(F)F)ccn1)c1ccc(Oc2ccnc3[nH]nc(N[C@@H]4CCCN(C(=O)C5CC5)C4)c23)cc1 [compound 173],–,–
100 to 1000,100 to 1000,> 10000,> 10000,"CCC(=O)N1CCC[C@@H](Nc2n[nH]c3nccc(Oc4ccc(-c5nc6ccccc6s5)cc4)c23)C1 [compound 222, 1-[(3R)-3-({4-[4-(1,3-benzothiazol-2-yl)phenoxy]-1H-pyrazolo[3,4-b]pyridin-3-yl}amino)piperidin-1-yl]propan-1-one]",–,–
> 10000,100 to 1000,> 10000,> 10000,Cc1cc(NC(=O)c2ccc(Oc3ccnc4[nH]nc(N[C@@H]5CCCN(C(=O)/C=C/CN(C)C6CC6)C5)c34)cc2)nn1C [compound 165],–,–
1000 to 10000,< 100,> 10000,> 10000,"Cc1ccnc(NC(=O)c2ccc(Oc3ccnc4[nH]nc(N[C@@H]5CCCN(C(=O)C6CCCC6)C5)c34)cc2)c1 [compound 107, 4-[(3-{[(3R)-1-cyclopentanecarbonylpiperidin-3-yl]amino}-1H-pyrazolo[3,4-b]pyridin-4-yl)oxy]-N-(4-methylpyridin-2-yl)benzamide]",–,–
100 to 1000,< 100,1000 to 10000,> 10000,"Cc1ccnc(NC(=O)c2ccc(Oc3ccnc4[nH]nc(N[C@@H]5CCCN(C(=O)N(C)C)C5)c34)cc2)c1 [compound 106, (3R)-N,N-dimethyl-3-[(4-{4-[(4-methylpyridin-2-yl)carbamoyl]phenoxy}-1H-pyrazolo[3,4-b]pyridin-3-yl)amino]piperidine-1-carboxamide]",–,–
100 to 1000,< 100,100 to 1000,> 10000,"Cc1ccnc(NC(=O)c2ccc(Oc3ccnc4[nH]nc(N[C@@H]5CCCN(C(=O)C(N)=O)C5)c34)cc2)c1 [compound 270, (R)-4-(3-(1-(2-amino-2-oxoacetyl)piperidin-3-ylamino)-1H-pyrazolo[3,4-b]pyridin-4-yloxy)-N-(4-methylpyridin-2-yl)benzamide]",–,–

SMILES,IC50 (Lck; read-out: LCK (IC50)) [nM],IC50 (Btk; read-out: Btk (IC50)) [nM],IC50 (EGFR) [nM],IC50 (JAK3) [nM],IC50 (Lck) [nM],IC50 (Btk) [nM]
"CCOP(=O)(CCCC(=O)N1CCC[C@@H](Nc2n[nH]c3nccc(Oc4ccc(C(=O)Nc5cc(C)ccn5)cc4)c23)C1)OCC [compound 271, (R)-diethyl 4-(3-(4-(4-(4-methylpyridin-2-ylcarbamoyl)phenoxy)-1H-pyrazolo[3,4-b]pyridin-3-ylamino)piperidin-1-yl)-4-oxobutylphosphonate]",100 to 1000,< 100,> 10000,> 10000,–,–
"CCOP(=O)(CC(=O)N1CCC[C@@H](Nc2n[nH]c3nccc(Oc4ccc(C(=O)Nc5cc(C)ccn5)cc4)c23)C1)OCC [compound 272, (R)-diethyl 2-(3-(4-(4-(4-methylpyridin-2-ylcarbamoyl)phenoxy)-1H-pyrazolo[3,4-b]pyridin-3-ylamino)piperidin-1-yl)-2-oxoethylphosphonate]",100 to 1000,< 100,> 10000,> 10000,–,–
"Cc1ccnc(NC(=O)c2ccc(Oc3ccnc4[nH]nc(N[C@@H]5CCCN(C(=O)Oc6ccccc6)C5)c34)cc2)c1 [compound 93, phenyl (3R)-3-[(4-{4-[(4-methylpyridin-2-yl)carbamoyl]phenoxy}-1H-pyrazolo[3,4-b]pyridin-3-yl)amino]piperidine-1-carboxylate]",–,–,> 10000,> 10000,1000 to 10000,100 to 1000
